These compounds were tested against T1, KRAS G12C 1-169, his-tagged protein, GDP-loaded (Homo sapiens, UniProt P01116, G12C) (assay: Biochemical assay: covalent binding to KRAS G12C measured by mass spectrometry). Conditions: covalently bind to KRAS G12C, after a thirty minute incubation period.
T1 construct: KRAS G12C 1-169, his-tagged protein, GDP-loaded
Procedure: Test compounds were prepared as 10 mM stock solutions in DMSO (Fisher cat #BP-231-100). KRAS G12C 1-169, his-tagged protein, GDP-loaded was diluted to 0.5 μM in buffer (20 mM Hepes, 150 mM NaCl, 1 mM MgCl2). Compounds were tested for activity as follows:
Compounds were diluted to 50× final test concentration in DMSO in 96-well storage plates. Compound stock solutions were vortexed before use and observed carefully for any sign of precipitation. Dilutions were as follow: • For 100 μM final compound concentration, compounds were diluted to 5000 μM (5 μL 10 mM compound stock+5 μL DMSO and mixed well by pipetting. • For 30 μM final compound concentration, compounds were diluted to 1500 μM (3 μL 10 mM compound stock+17 μL DMSO) and mixed well by pipetting. • For 10 μM final compound concentration, compounds were diluted to 500 μM (2 μL 10 mM compound stock+38 μL DMSO) and mixed well by pipetting. 49 μL of the stock protein solution was added to each well of a 96-well PCR plate (Fisher cat #1423027). 1 μl of the diluted 50× compounds were added to appropriate wells in the PCR plate using 12-channel pipettor. Reactions were mixed carefully and thoroughly by pipetting up/down with a 200 μL multi-channel pipettor. The plate was sealed well with aluminum plate seal, and stored in drawer at room temperature for 10 minutes, 30 minutes, 2 hours or 24 hours. 5 μL of 2% formic acid (Fisher cat #A117) in de-ionized H2O was then added to each well followed by mixing with a pipette. The plate was then resealed with aluminum seal and stored on dry ice until analyzed as described below.
The above described assays were analyzed by mass spectrometry according to one of the following two procedures:
The MS instrument is set to positive polarity, 2 GHz resolution, and low mass (1700) mode and allowed to equilibrate for 30 minutes. The instrument is then calibrated, switched to acquisition mode and the appropriate method loaded.
After another 30 minute equilibration time, a blank batch (i.e., buffer) is run to ensure equipment is operating properly. The samples are thawed at 37° C. for 10 minutes, briefly centrifuged, and transfer to the bench top. Wells A1 and H12 are spiked with 1 μL 500 μM internal standard peptide, and the plates centrifuged at 2000×g for 5 minutes. The method is then run and masses of each individual well recorded.
The masses (for which integration data is desired) for each well are pasted into the platemap and exported from the analysis. Masses for the internal standards are exported as well. The data at 50 ppm is extracted for the +19 charge state, and identity of well A1 is assigned using the internal standard spike and integrated. Peak data is exported as a TOF list and the above steps are repeated individually, for the +20, 21, 22, 23, 24, and 25 charge states.
The masses and peak intensities of KRAS G12C protein species were measured using a Dionex RSLCnano system (Thermo Scientific) connected to a Q Exactive Plus mass spectrometer (Thermo Scientific).
[…] of sample was each loaded onto a Aeris™ […] WIDEPORE C4 200 Å, LC Column 50×2.1 mm column maintained at 40° C. at a flow rate of 600 μL/min with […] (0.1% formic acid in acetonitrile). The liquid chromatography conditions were 20% solvent B for 1 minute, 20% to 60% solvent B for 1.5 minutes, 60% to 90% solvent for 0.5 minute, 90% solvent B for 0.2 minute, 90% to 20% solvent B for 0.2 minute, and then equilibrated for 1.6 minute before the following sample injection. The flow rate was maintained at 600 μL/min throughout the sample analysis.
The mass spectrometer was operated in profile mode at a resolution of 17500, 5 microscans, using 50 msec max injection time and an AGC target of 1×10^6, and a full mass range from 800-1850 m/z was recorded. The HCD trapping gas was optimized for maximum sensitivity for intact proteins. […]
In the case of `C=CC(=O)N1CC(Nc2ncnc3c(-c4c(C)ccc5[nH]ncc45)cccc23)C1` [Compound 1, 1-(3-((8-(5-methyl-1H-indazol-4-yl)quinazolin-4-yl)amino)azetidin-1-yl)prop-2-en-1-one], the Binding % is reported as “+ (+ indicates binding activity up to 5%)”.
`C=CC(=O)N1CC(Nc2ncnc3c(-c4cc(O)cc5ccccc45)cccc23)C1` [Compound 2, 1-(3-((8-(3-hydroxynaphthalen-1-yl)quinazolin-4-yl)amino)azetidin-1-yl)prop-2-en-1-one] was tested, and the Binding % was “++ (++ indicates binding activity of 5% or more)”.
`C=CC(=O)N1CC(Nc2cnnc3c(-c4cc(O)cc5ccccc45)cccc23)C1` [Compound 18, 1-(3-((8-(3-hydroxynaphthalen-1-yl)cinnolin-4-yl)amino)azetidin-1-yl)prop-2-en-1-one] was tested, and the Binding % was “++ (++ indicates binding activity of 5% or more)”.
For `C=CC(=O)N1CCN(c2cnnc3c(-c4c(C)ccc5[nH]ncc45)cccc23)CC1` [Compound 19, 1-(4-(8-(5-methyl-1H-indazol-4-yl)cinnolin-4-yl)piperazin-1-yl)prop-2-en-1-one], the Binding % was “+ (+ indicates binding activity up to 5%)”.
For `C=CC(=O)N1CCN(c2cnnc3c(-c4cc(O)cc5ccccc45)cccc23)CC1` [Compound 20, 1-(4-(8-(3-hydroxynaphthalen-1-yl)cinnolin-4-yl)piperazin-1-yl)prop-2-en-1-one], the Binding % was “++ (++ indicates binding activity of 5% or more)”.
With `C=CC(=O)N1CCCC(Nc2cnnc3c(-c4c(C)ccc5[nH]ncc45)cccc23)C1` (centres unmarked) [Compound 21, 1-(3-((8-(5-methyl-1H-indazol-4-yl)cinnolin-4-yl)amino)piperidin-1-yl)prop-2-en-1-one] the Binding % was “+ (+ indicates binding activity up to 5%)”.
In the case of `C=CC(=O)N1CCC(Nc2cnnc3c(-c4cc(O)cc5ccccc45)cccc23)C1` (centres unmarked) [Compound 22], the Binding % is reported as “+ (+ indicates binding activity up to 5%)”.
For `C=CC(=O)N1CCC(Nc2cnnc3c(-c4c(C)ccc5[nH]ncc45)cccc23)C1` (centres unmarked) [Compound 23, 1-(3-((8-(5-methyl-1H-indazol-4-yl)cinnolin-4-yl)amino)pyrrolidin-1-yl)prop-2-en-1-one], the Binding % was “+ (+ indicates binding activity up to 5%)”.
In the case of `C=CC(=O)N1CC(Nc2cncc3c(-c4cc(O)cc5ccccc45)ccnc23)C1` [Compound 24, 1-(3-((4-(3-hydroxynaphthalen-1-yl)-1,6-naphthyridin-8-yl)amino)azetidin-1-yl)prop-2-en-1-one], the Binding % is reported as “++ (++ indicates binding activity of 5% or more)”.
`C=CC(=O)N1CC(Nc2cncc3c(-c4cc(O)cc5ccccc45)cccc23)C1` [Compound 25, 1-(3-((8-(3-hydroxynaphthalen-1-yl)isoquinolin-4-yl)amino)azetidin-1-yl)prop-2-en-1-one] was tested, and the Binding % was “++ (++ indicates binding activity of 5% or more)”.
In the case of `C=CC(=O)N1CC(Nc2cncc3c(-c4c(C)ccc5[nH]ncc45)cccc23)C1` [Compound 26, 1-(3-((8-(5-methyl-1H-indazol-4-yl)isoquinolin-4-yl)amino)azetidin-1-yl)prop-2-en-1-one], the Binding % is reported as “++ (++ indicates binding activity of 5% or more)”.

— patent US11274093B2, “Fused bicyclic benzoheteroaromatic compounds and methods of use thereof” (Araxes Pharma LLC, priority 2017, dated 2022)
